The text below walks through data of patent publication US5416081A, “Cephalosporin compounds” (Lucky Limited, priority 1992, dated 1995).

SMILES strings stand for the structures. ≈ marks a conversion by molar mass, not a printed value. Where two headings read alike, the source gives them in different places.

Broadly, the MIC is the lowest concentration that inhibits growth of the organism.

Format in all cases: cell-based
One test deals with S. aureus/6538pA. The test is described as follows: MIC against standard strain by two-fold agar dilution, S. aureus/6538pA. The conditions noted are these: Staphylococcus aureus. The procedure: (§1) These MIC values were taken by employing a two-fold dilution method: that is, two-fold serial dilutions of each of the test compounds were made and dispersed in a Muller-Hinton agar medium; 2 μl of the standard test strain which had the 10^7 CFU(Colony Forming Unit) per ml was inoculated on the medium; and these were incubated at 37° C. for 20 hours.
(Agar dilution tests growth on a series of plates holding different concentrations.)

For another test, the system named is S. aureus/giorigio. The test is described as follows: MIC against standard strain by two-fold agar dilution, S. aureus/giorigio. The settings on record: Staphylococcus aureus. The protocol: as §1
In a further test the test system is S. aureus/77. The test is described as follows: MIC against standard strain by two-fold agar dilution, S. aureus/77. The settings on record: Staphylococcus aureus. The protocol:
as §1

Another test deals with E. coli/10536. The test is described as follows: MIC against standard strain by two-fold agar dilution, E. coli/10536. The conditions noted are these: Escherichia coli. The procedure:
as §1

For another test, the system named is E. coli/3190Y. The experiment in a line: MIC against standard strain by two-fold agar dilution, E. coli/3190Y. The settings on record: Escherichia coli. The procedure:
as §1

Another test deals with E. coli TEM1/1193E. The experiment in a line: MIC against standard strain by two-fold agar dilution, E. coli TEM1/1193E. The conditions noted are these: Escherichia coli, 20 h. The procedure: as §1
For a further test, the system named is E. coli TEM5/3739E. The experiment in a line: MIC against standard strain by two-fold agar dilution, E. coli TEM5/3739E. The conditions noted are these: Escherichia coli, 20 h. The protocol:
as §1

The next test concerns E. coli TEM9/2639E. The experiment in a line: MIC against standard strain by two-fold agar dilution, E. coli TEM9/2639E. The conditions noted are these: Escherichia coli, 20 h. The procedure: as §1
The subject of a further test is P. aeruginosa/1912E. The test is described as follows: MIC against standard strain by two-fold agar dilution, P. aeruginosa/1912E. The conditions noted are these: Pseudomonas aeruginosa. The protocol:
as §1

In another test the test system is P. aeruginosa/10145. The test is described as follows: MIC against standard strain by two-fold agar dilution, P. aeruginosa/10145. The settings on record: Pseudomonas aeruginosa. The procedure:
as §1

Another test has as its system P. aeruginosa/6065Y. The test is described as follows: MIC against standard strain by two-fold agar dilution, P. aeruginosa/6065Y. The settings on record: Pseudomonas aeruginosa. The procedure:
as §1

The test system of a further test is A. calcoaceticus /15473A. The test is described as follows: MIC against standard strain by two-fold agar dilution, A. calcoaceticus /15473A. The settings on record: Acinetobacter calcoaceticus. The procedure:
as §1

A further test concerns E. cloacae/1194E. The experiment in a line: MIC against standard strain by two-fold agar dilution, E. cloacae/1194E. The settings on record: Enterobacter cloacae. The protocol:
as §1

A further test has as its system K. aerogenes/1776E. The test is described as follows: MIC against standard strain by two-fold agar dilution, K. aerogenes/1776E. The conditions noted are these: Klebsiella aerogenes. The procedure: as §1
A further test concerns S. marcescens/1826E. The experiment in a line: MIC against standard strain by two-fold agar dilution, S. marcescens/1826E. The settings on record: Serratia marcescens. The protocol: as §1
Another test deals with S. typhimunium/14028A. The experiment in a line: MIC against standard strain by two-fold agar dilution, S. typhimunium/14028A. The protocol: as §1

`C[C@H](O/N=C(\C(=O)NC1C(=O)N2C(C(=O)[O-])=C(CSc3nc(N)c4c([n+]3C)CCC4)CSC12)c1csc(N)n1)C(=O)O` (stereo partly drawn) [I-6(S)]: the minimum inhibitory concentration (MIC) in the test on S. aureus/6538pA (S. aureus/6538pA, Muller-Hinton agar, 37° C., 20 hours, read-out: MIC) came out at 4 µg/mL (≈ 6.3 µM); with S. aureus/giorigio (S. aureus/giorigio, Muller-Hinton agar, 37° C., 20 hours, read-out: MIC) it was 2 µg/mL (≈ 3.15 µM); in the test on S. aureus/77 (S. aureus/77, Muller-Hinton agar, 37° C., 20 hours, read-out: MIC), 4 µg/mL (≈ 6.3 µM); in the test on E. coli/10536 (E. coli/10536, Muller-Hinton agar, 37° C., 20 hours, read-out: MIC), 0.016 µg/mL (≈ 0.0252 µM); in the test on E. coli/3190Y (E. coli/3190Y, Muller-Hinton agar, 37° C., 20 hours, read-out: MIC), 0.063 µg/mL (≈ 0.0993 µM); in the test on E. coli TEM1/1193E, 0.13 µg/mL (≈ 0.205 µM). The MIC is 1 µg/mL (≈ 1.58 µM) in the test on E. coli TEM5/3739E; 4 µg/mL (≈ 6.3 µM) with E. coli TEM9/2639E; 1 µg/mL (≈ 1.58 µM) with P. aeruginosa/1912E (P. aeruginosa/1912E, Muller-Hinton agar, 37° C., 20 hours, read-out: MIC); 2 µg/mL (≈ 3.15 µM) in the test with P. aeruginosa/10145 (P. aeruginosa/10145, Muller-Hinton agar, 37° C., 20 hours, read-out: MIC); 4 µg/mL (≈ 6.3 µM) in the test on P. aeruginosa/6065Y (P. aeruginosa/6065Y, Muller-Hinton agar, 37° C., 20 hours, read-out: MIC); 4 µg/mL (≈ 6.3 µM) in the test with A. calcoaceticus /15473A (A. calcoaceticus /15473A, Muller-Hinton agar, 37° C., 20 hours, read-out: MIC). Further, the MIC came out at 4 µg/mL (≈ 6.3 µM) with E. cloacae/1194E (E. cloacae/1194E, Muller-Hinton agar, 37° C., 20 hours, read-out: MIC); 0.13 µg/mL (≈ 0.205 µM) in the test with K. aerogenes/1776E (K. aerogenes/1776E, Muller-Hinton agar, 37° C., 20 hours, read-out: MIC); 0.25 µg/mL (≈ 0.394 µM) with S. marcescens/1826E (S. marcescens/1826E, Muller-Hinton agar, 37° C., 20 hours, read-out: MIC); 0.25 µg/mL (≈ 0.394 µM) in the test on S. typhimunium/14028A (S. typhimunium/14028A, Muller-Hinton agar, 37° C., 20 hours, read-out: MIC).

`CC(C)(O/N=C(\C(=O)N[C@@H]1C(=O)N2C(C(=O)[O-])=C(C[n+]3ccccc3)CS[C@H]12)c1csc(N)n1)C(=O)O` [ceftazidime, Ceftazidime, reference compound]: the MIC was found to be 16 µg/mL (≈ 29.3 µM) in the test with S. aureus/6538pA (20 h); 4 µg/mL (≈ 7.32 µM) against S. aureus/giorigio (20 h); 32 µg/mL (≈ 58.5 µM) against S. aureus/77 (20 h); 0.063 µg/mL (≈ 0.115 µM) against E. coli/10536 (20 h); 0.031 µg/mL (≈ 0.0567 µM) with E. coli/3190Y (20 h); 0.28 µg/mL (≈ 0.512 µM) with E. coli TEM1/1193E. Besides, the MIC with E. coli TEM5/3739E is 8 µg/mL (≈ 14.6 µM); against E. coli TEM9/2639E, above 128 µg/mL; in the test with P. aeruginosa/1912E (20 h), 1 µg/mL (≈ 1.83 µM); with P. aeruginosa/10145 (20 h), 2 µg/mL (≈ 3.66 µM); against P. aeruginosa/6065Y (20 h), 32 µg/mL (≈ 58.5 µM); with A. calcoaceticus /15473A (20 h) it was 2 µg/mL (≈ 3.66 µM). The MIC came to 64 µg/mL (≈ 117 µM) with E. cloacae/1194E (20 h), 0.25 µg/mL (≈ 0.457 µM) against K. aerogenes/1776E (20 h), 0.25 µg/mL (≈ 0.457 µM) in the test with S. marcescens/1826E (20 h) and 0.25 µg/mL (≈ 0.457 µM) in the test with S. typhimunium/14028A (20 h).
